From patent publication US12419875B2, “Use of Axitinib and analogs thereof in preparing blood-brain barrier permeability regulator” (ZHEJIANG UNIVERSITY, priority 2018, dated 2025)

Columns and labels:
U87 MG glioma cells = test: Cell survival rate by tetrazolium blue colorimetry, U87 MG cells; type: cell-based; settings: U87MG cells, 10 μM (therapeutic dose); FIGS. 13 and 14
Experimental: (§1) FIG. 13: Evaluation of cell survival rate in a Transwell model. A Transwell model of co-incubation of brain microvascular endothelial cells bEnd.3 and glioma cells U87 MG simulates a pathological blood-brain barrier. Axitinib (10 μM) and an Axitinib analog of phosphatidylinositol kinase (PI3K) inhibitor LY294002 (10 μM) were added into the Transwell chamber. After 24 hours, the survival rate of bEnd.3 cells in the Transwell chamber (Panel A) and U87 MG cells in the Transwell outer chamber (Panel B) were detected by tetrazolium blue colorimetry (n=3).
(§2) FIG. 14: Evaluation of Cytotoxicity for Axitinib and an analog thereof. […] Cell survival rate was detected by tetrazolium blue colorimetry. […]
(§3) The physiological blood-brain barrier and the pathological blood-brain barrier as constructed in Method 1 and Method 2 in the Example 1 were used as models, respectively. […] Absorbance at 570 nm was measured with a microplate reader. The survival rate of cells was calculated according to the following formula: Survival rate of cells (%)=(absorbance value of a test group/absorbance value of a control group)×100%
(§4) In addition, bEnd.3 cells and U87 MG glioma cells were used as model cells to evaluate the cytotoxicity of Axitinib and an Axitinib analog of phosphatidylinositol kinase (PI3K) inhibitor LY294002 with the tetrazolium blue colorimetric method. […] Absorbance at 570 nm was measured with a microplate reader.

bEnd.3 cells = test: Cell survival rate by tetrazolium blue colorimetry, bEnd.3 cells; type: cell-based; settings: 10 μM (therapeutic dose), FIGS. 13 and 14
Experimental: as §1, §2, §3, §4

tyrosine hydroxylase = test: Striatum tyrosine hydroxylase immunohistochemistry, model of Parkinson's disease; settings: Axitinib 10 mg/kg 7 days; levodopa 20 mg/kg 10 days; FIG. 29
[1] = test system: pathological blood-brain barrier; test: Evans blue permeation into the brain after treatment, model of Parkinson's disease; type: in vivo, C57/BL6 mice; settings: Axitinib 10 mg/kg tail vein 7 days; levodopa 20 mg/kg intraperitoneally 10 days; vs Parkinson's control; FIGS. 26 and 27
[2] = test system: model of Parkinson's disease; test: Movement time within 2 minutes, model of Parkinson's disease; type: in vivo, C57/BL6 mice; settings: Axitinib 10 mg/kg 7 days; levodopa 20 mg/kg 10 days; vs Parkinson's control; FIG. 28
Experimental: After the treatment was accomplished, movement time within 2 minutes (walking, lifting of both forelimbs, washing face, hair grooming and the like) was recorded for each of the test groups (n=5).
After the Axitinib treatment and the levodopa treatment was accomplished, movement time within 2 minutes (walking, lifting of both forelimbs, washing face, hair grooming and the like) was recorded for each of the test groups.

| SMILES | Cytotoxicity (U87 MG glioma cells) | Cytotoxicity (bEnd.3 cells) | Expression of striatum tyrosine hydroxylase (tyrosine hydroxylase) | Amount of Evans blue permeated into the brain [1] | Dyskinesia (movement time within 2 minutes) [2] |
| --- | --- | --- | --- | --- | --- |
| O=c1cc(N2CCOCC2)oc2c(-c3ccccc3)cccc12 [LY294002] | do not produce significant cytotoxicity | do not produce significant cytotoxicity |  |  |  |
| N[C@@H](Cc1ccc(O)c(O)c1)C(=O)O [levodopa] |  |  | significantly up-regulated | reduced to varied degrees | significantly alleviated |
